# Experimental data taken from patent US20260258035A1, “FIVE-MEMBERED AND SIX-MEMBERED NITROGEN-CONTAINING COMPOUND, AND INTERMEDIATE, PREPARATION METHOD AND USE THEREOF” (HANGZHOU SYNRX THERAPEUTICS BIOMEDICAL TECHNOLOGY CO., LTD., priority 2022, published 2026).
# Where two headings read alike, the source gives them in different places.
# Key:
# PARG = PARG (Homo sapiens, UniProt Q86W56); assay: Biochemical assay (PARG, TFMU-ADPr substrate)
# HCC1806 = assay: Cell viability assay (CellTiter-Glo); format: cell-based, Human; conditions: HCC1806, 7 days, CellTiter-Glo, read-out: IC50 (nM) in cell viability assay
# [1] = system: Human breast squamous carcinoma cells HCC1806; assay: Cell function assay (In-Cell Western, PAR/pADPr after MMS); format: cell-based; conditions: read-out: IC50 (nM) in cell function assay
# Experimental: 2. Cell Function Assay (In-Cell Western)
# • 1) Human breast squamous carcinoma cells HCC1806 (ATCC) were seeded to the 384-well plate (Corning, #3764) at 20,000 cells/well, incubated for 24 h in a CO2 (5%) incubator at 37° C. to allow for complete adherence of the cells; • 2) 120 nL compounds or DMSO were added to the 384-well plate by Echo 550 (LABCYTE, #550) (final concentrations of compounds: 30000 nM, 10000 nM, 3000 nM, 1000 nM, 300 nM, 100 nM, 30 nM, 10 nM, 3 nM, 1 nM, 0 nM), and then the cells were incubated for 1 h in a CO2 (5%) incubator at 37° C.; • 3) 40 nL MMS (methyl mesylate, Sigma, #129925)(final concentration: 0.5 mM) was added to the plate by Echo 550, and the cells were treated for 1 h in a CO2 (5%) incubator at 37° C.
# [2] = 4 nM PARG, 66.2 uM TFMU-ADPr, 3 min at room temperature
# [3] = HCC1806, In-Cell Western, MMS treatment
# [4] = HCC1806, compound 1 h then 0.5 mM MMS 1 h, PAR/pADPr antibody, In-Cell Western
# Sequence of PARG (Q86W56 whole entry): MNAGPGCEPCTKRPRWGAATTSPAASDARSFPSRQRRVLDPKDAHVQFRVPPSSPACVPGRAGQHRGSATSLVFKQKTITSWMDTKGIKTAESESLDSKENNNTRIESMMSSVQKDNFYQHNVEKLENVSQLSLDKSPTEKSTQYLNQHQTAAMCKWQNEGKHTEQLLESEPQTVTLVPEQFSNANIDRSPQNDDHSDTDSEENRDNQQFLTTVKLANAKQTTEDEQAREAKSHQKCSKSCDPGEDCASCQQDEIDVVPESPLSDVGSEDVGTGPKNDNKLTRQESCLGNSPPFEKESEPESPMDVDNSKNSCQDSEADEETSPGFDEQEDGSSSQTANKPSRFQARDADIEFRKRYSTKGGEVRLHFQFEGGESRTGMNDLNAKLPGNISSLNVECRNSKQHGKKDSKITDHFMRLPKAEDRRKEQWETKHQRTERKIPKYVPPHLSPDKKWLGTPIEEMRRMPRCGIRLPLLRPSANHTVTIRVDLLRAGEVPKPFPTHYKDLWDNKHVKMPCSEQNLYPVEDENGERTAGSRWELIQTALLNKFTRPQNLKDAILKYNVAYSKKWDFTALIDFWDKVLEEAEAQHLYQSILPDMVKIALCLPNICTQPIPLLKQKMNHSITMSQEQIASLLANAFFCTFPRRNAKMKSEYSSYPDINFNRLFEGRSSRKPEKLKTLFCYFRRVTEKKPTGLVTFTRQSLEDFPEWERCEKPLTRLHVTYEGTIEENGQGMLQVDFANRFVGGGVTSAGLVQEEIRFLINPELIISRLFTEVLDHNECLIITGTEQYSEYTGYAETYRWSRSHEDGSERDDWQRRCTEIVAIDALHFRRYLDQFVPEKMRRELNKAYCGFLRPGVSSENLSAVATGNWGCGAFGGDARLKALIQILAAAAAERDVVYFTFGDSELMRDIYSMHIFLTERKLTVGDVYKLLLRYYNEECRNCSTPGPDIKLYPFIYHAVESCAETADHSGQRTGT
IC50 (PARG; [2]) [nM],"IC50 (PARG; PARG, TFMU-ADPr substrate) [nM]",IC50 (HCC1806) [nM],"IC50 (HCC1806; Homo sapiens, HCC1806, 168 h) [nM]","IC50 [1, 3] [nM]","IC50 [1, 4] [nM]",SMILES
< 100,2.4,500,< 500,9.15,–,"CC(C)C(=O)N1CC=C(c2cc(S(=O)(=O)NC3(C#N)CC3)cn3c(-c4nnc(C(F)F)s4)cnc23)CC1 [Example 12, N-(1-cyanocyclopropyl)-3-(5-(difluoromethyl)-1,3,4-thiadiazol-2-yl)-8-(1-isobutyryl-1,2,3,6-tetrahydropyridin-4-yl)imidazo[1,2-a]pyridine-6-sulfonamide]"
< 100,2.46,500,< 500,52.6,< 100,"CC(C)C(=O)N1CC2(CC=C(c3nc(-c4nnc(C(F)F)s4)n4cc(S(=O)(=O)NC5(C#N)CC5)ccc34)C2)C1 [Example 24, N-(1-cyanocyclopropyl)-3-(5-(difluoromethyl)-1,3,4-thiadiazol-2-yl)-1-(2-isobutyryl-2-azaspiro[3.4]oct-6-en-6-yl)imidazo[1,5-a]pyridine-6-sulfonamide]"
< 100,1.22,–,< 500,5.77,< 100,"CC(C)C(=O)N1CCN(c2cc(S(=O)(=O)NC3(C)CC3)cn3c(-c4nnc(C(F)F)s4)ncc23)CC1 [Example 34, 3-(5-(difluoromethyl)-1,3,4-thiadiazol-2-yl)-8-(4-isobutyrylpiperazin-1-yl)-N-(1-methylcyclopropyl)imidazo[1,5-a]pyridine-6-sulfonamide]"
< 100,4.7,–,2670,166,–,"CC(C)C(=O)N1CCN(c2cc(S(=O)(=O)NC3(CO)CC3)cn3c(-c4nnc(C(F)F)s4)ncc23)CC1 [Example 37, 3-(5-(difluoromethyl)-1,3,4-thiadiazol-2-yl)-N-(1-(hydroxymethyl)cyclopropyl)-8-(4-isobutyrylpiperazin-1-yl)imidazo[1,5-a]pyridine-6-sulfonamide]"
< 100,0.96,283,< 500,9.32,< 100,"CC(C)C(=O)N1CCN(c2cc(S(=O)(=O)NC3(C)COC3)cn3c(-c4nnc(C(F)F)s4)ncc23)CC1 [Example 43, 3-(5-(difluoromethyl)-1,3,4-thiadiazol-2-yl)-8-(4-isobutyrylpiperazin-1-yl)-N-(3-methyloxetan-3-yl)imidazo[1,5-a]pyridine-6-sulfonamide]"
< 100,3.66,738,500 to 5000,53.2,100 to 500,"CC(C)C(=O)N1CCN(c2c(F)c(S(=O)(=O)NC3(C#N)CC3)cn3c(-c4nnc(C(F)F)s4)ncc23)CC1 [Example 52, N-(1-cyanocyclopropyl)-3-(5-(difluoromethyl)-1,3,4-thiadiazol-2-yl)-7-fluoro-8-(4-isobutyrylpiperazin-1-yl)imidazo[1,5-a]pyridine-6-sulfonamide]"
< 100,11.4,9380,5000 to 30000,26.5,< 100,"CC(C)C(=O)N1CCN(c2cc(S(=O)(=O)NC34CC(C3)C4)cn3c(-c4nnc(C(F)F)s4)ncc23)CC1 [Example 54, N-(bicyclo[1.1.1]pentan-1-yl)-3-(5-(difluoromethyl)-1,3,4-thiadiazol-2-yl)-8-(4-isobutyrylpiperazin-1-yl)imidazo[1,5-a]pyridine-6-sulfonamide]"
< 100,0.86,802,500 to 5000,22.9,< 100,"CC1(NS(=O)(=O)c2cc(N3CCC4(CC3)COC4)c3cnc(-c4nnc(C(F)F)s4)n3c2)COC1 [Example 56, 3-(5-(difluoromethyl)-1,3,4-thiadiazol-2-yl)-N-(3-methyloxetan-3-yl)-8-(2-oxa-7-azaspiro[3.5]nonan-7-yl)imidazo[1,5-a]pyridine-6-sulfonamide]"
< 100,21.2,–,> 30000,1110,> 1000,"[2H]C1([2H])CCC1([2H])NS(=O)(=O)c1cc(N2CCN(C(=O)C(C)C)CC2)c2cnc(-c3nnc(C(F)F)s3)n2c1 (stereo not drawn) [Example 57, N-(cyclobutyl-1,2,2-d3)-3-(5-(difluoromethyl)-1,3,4-thiadiazol-2-yl)-8-(4-isobutyrylpiperazin-1-yl)imidazo[1,5-a]pyridine-6-sulfonamide]"
< 100,25.1,–,> 30000,2870,> 1000,"CC(C)C(=O)N1CCN(c2cc(S(=O)(=O)NC3(C)CCOC3)cn3c(-c4nnc(C(F)F)s4)ncc23)CC1 (stereo not drawn) [Example 58, 3-(5-(difluoromethyl)-1,3,4-thiadiazol-2-yl)-8-(4-isobutyrylpiperazin-1-yl)-N-(3-methyltetrahydrofuran-3-yl)imidazo[1,5-a]pyridine-6-sulfonamide]"
< 100,7.02,6000,5000 to 30000,122,100 to 500,"CC1(O)CCN(c2cc(S(=O)(=O)NC3(C#N)CC3)cn3c(-c4nnc(C(F)F)s4)ncc23)CC1 [Example 65, N-(1-cyanocyclopropyl)-3-(5-(difluoromethyl)-1,3,4-thiadiazol-2-yl)-8-(4-hydroxy-4-methylpiperidin-1-yl)imidazo[1,5-a]pyridine-6-sulfonamide]"
< 100,20,432,< 500,9.05,< 100,"CC(C)C(=O)N1CCN(c2cc(S(=O)(=O)NC3CC3)cn3c(-c4nnc(C(F)F)s4)ncc23)CC1 [Example 69, N-cyclopropyl-3-(5-(difluoromethyl)-1,3,4-thiadiazol-2-yl)-8-(4-isobutyrylpiperazin-1-yl)imidazo[1,5-a]pyridine-6-sulfonamide]"
< 100,13.2,370,< 500,3.78,< 100,"C[C@@H]1CN(c2cc(S(=O)(=O)NC3(C#N)CC3)cn3c(-c4nnc(C(F)F)s4)ncc23)CCN1C(=O)C1CC1 [Example 75, (R)-N-(1-cyanocyclopropyl)-8-(4-(cyclopropanecarbonyl)-3-methylpiperazin-1-yl)-3-(5-(difluoromethyl)-1,3,4-thiadiazol-2-yl)imidazo[1,5-a]pyridine-6-sulfonamide]"
< 100,13.8,450,< 500,3.59,< 100,"CC1(C(=O)N2CCN(c3cc(S(=O)(=O)NC4(C#N)CC4)cn4c(-c5nnc(C(F)F)s5)ncc34)CC2)CC1 [Example 76, N-(1-cyanocyclopropyl)-3-(5-(difluoromethyl)-1,3,4-thiadiazol-2-yl)-8-(4-(1-methylcyclopropane-1-carbonyl)piperazin-1-yl)imidazo[1,5-a]pyridine-6-sulfonamide]"
< 100,7.59,866,500 to 5000,7.34,< 100,"C[C@@H]1CN(c2cc(S(=O)(=O)NC3(C#N)CC3)cn3c(-c4nnc(C(F)F)s4)ncc23)C[C@H](C)N1C(=O)C1CC1 [Example 78, N-(1-cyanocyclopropyl)-8-((3R,5S)-4-(cyclopropanecarbonyl)-3,5-dimethylpiperazin-1-yl)-3-(5-(difluoromethyl)-1,3,4-thiadiazol-2-yl)imidazo[1,5-a]pyridine-6-sulfonamide]"
